Laboratory results from ChEMBL document CHEMBL6127134, “Light-Activable Inhibitor Overcomes Antimicrobial Resistance and Regulates Antibacterial Activity” (J Med Chem, 2024).
Converted amounts (≈) assume the structure as drawn. The source made the active and inactive calls. The rule behind the calls is not given here.

Legend:
Escherichia coli [1] = test: Antibacterial activity against drug susceptible Escherichia coli; format: functional
Escherichia coli [2] = test: Antibacterial activity against drug resistant Escherichia coli; format: functional
Escherichia coli [3] = test: Bactericidal activity against drug resistant Escherichia coli in presence of CFS by plate count method; format: functional
Escherichia coli [4] = test: Antibiofilm activity against drug susceptible Escherichia coli incubated for 48 hrs in presence of CFS by crystal violet staining based microplate reader assay; format: functional, organism-based
Escherichia coli [5] = test: Synergistic antibacterial activity against cefoperazone sodium resistant Escherichia coli assessed as decrease in CFS MIC at 20 ug/ml incubated for 8 hrs (reference value: 285 ug/ml); format: functional; details: dose 20 µg/ml
Escherichia coli [6] = test: Bactericidal activity against drug resistant Escherichia coli after repeated drug exposure for three generation and measured on fourth generation in presence of CFS by plate count method; format: functional
Bacteria [7] = test: Inhibition of TEM-1 activity (unknown origin) at 10 ug/ml using nitrocefin as substrate preincubated for 30 mins followed by 485 nm light irradiation and substrate addition by UV-Vis spectrometer assay; details: dose 10.0 µg/ml
[8] = Photoactivation of the compound assessed as photo conversion ratio by measuring SU release under 5 mins of blue light irradiation by HPLC analysis
Bacteria [9] = test: Inhibition of TEM-1 activity (unknown origin); details: concentration not given here
Escherichia coli [10] = test: Antibacterial activity against cefoperazone sodium resistant Escherichia coli assessed as elimination of resistant bacteria incubated for 8 hrs; format: functional
Escherichia coli [11] = test: Bactericidal activity against CFS resistant Escherichia coli incubated under dark condition by AO/EB staining based confocal laser scanning microscopy assay; format: functional, organism-based
Escherichia coli [12] = test: Antibacterial activity against cefoperazone sodium susceptible Escherichia coli incubated for 8 hrs; format: functional
Escherichia coli [13] = test: Bactericidal activity against CFS susceptible Escherichia coli incubated under dark condition by AO/EB staining based confocal laser scanning microscopy assay; format: functional, organism-based
Escherichia coli [14] = test: Antibiofilm activity against drug susceptible Escherichia coli incubated for 48 hrs by crystal violet staining based microplate reader assay; format: functional, organism-based
Escherichia coli [15] = test: Bactericidal activity against CFS susceptible Escherichia coli incubated under light irradiation by AO/EB staining based confocal laser scanning microscopy assay; format: functional, organism-based
Escherichia coli [16] = test: Antibacterial activity against CFS resistant Escherichia coli assessed as change in bacterial cell wall by SEM analysis; format: functional, organism-based
Escherichia coli [17] = test: Antibiofilm activity against drug resistant Escherichia coli incubated for 48 hrs by crystal violet staining based microplate reader assay; format: functional
Escherichia coli [18] = test: Antibacterial activity against cefoperazone sodium resistant Escherichia coli incubated for 8 hrs; format: functional
[19] = Stability of compound under ambient light condition measured after 72 hrs; format: physicochemical
Bacteria [20] = test: Inhibition of TEM-1 activity (unknown origin) at 65 ug/ml using nitrocefin as substrate preincubated for 30 mins followed by 485 nm light irradiation and substrate addition measured after 5 mins by UV-Vis spectrometer assay; details: dose 65.0 µg/ml, time 35.0 min
Escherichia coli [21] = test: Bactericidal activity against drug resistant Escherichia coli after repeated drug exposure for multiple generation under light irradiation in presence of CFS by plate count method; format: functional, organism-based
Escherichia coli [22] = test: Synergistic bactericidal activity against CFS resistant Escherichia coli incubated under light irradiation in presence of CFS by AO/EB staining based confocal laser scanning microscopy assay; format: functional, organism-based
Escherichia coli [23] = test: Synergistic bactericidal activity against CFS susceptible Escherichia coli incubated under light irradiation in presence of CFS by AO/EB staining based confocal laser scanning microscopy assay; format: functional, organism-based
Escherichia coli [24] = test: Downregulation of beta-lactamase expression in Escherichia coli measured after eighth generation in presence of CFS under light irradiation condition by ELISA; format: functional
Escherichia coli [25] = test: Synergistic antibacterial activity against Escherichia coli incubated under light irradiation in presence of AMP; format: functional, organism-based
Escherichia coli [26] = test: Synergistic antibacterial activity against cefoperazone sodium resistant Escherichia coli assessed as elimination of resistant bacteria incubated for 8 hrs in presence of CFS; format: functional
[27] = Photoactivation of the compound assessed as encapsulated SU release under 405 nm light irradiation by HPLC analysis
Escherichia coli [28] = test: Synergistic bactericidal activity against CFS susceptible Escherichia coli incubated under dark condition in presence of CFS by AO/EB staining based confocal laser scanning microscopy assay; format: functional, organism-based
Bacteria [29] = test: Inhibition of TEM-1 activity (unknown origin) at 65 ug/ml using nitrocefin as substrate under absence of light irradiation by UV-Vis spectrometer assay; details: dose 65.0 µg/ml
Bacteria [30] = test: Inhibition of TEM-1 activity (unknown origin) at 65 ug/ml using nitrocefin as substrate preincubated for 30 mins followed by 485 nm light irradiation and substrate addition measured after 2 mins by UV-Vis spectrometer assay; details: dose 65.0 µg/ml, time 32.0 min
Escherichia coli [31] = test: Antibiofilm activity against drug resistant Escherichia coli incubated for 48 hrs in presence of CFS by crystal violet staining based microplate reader assay; format: functional
Escherichia coli [32] = test: (§1) Synergistic antibacterial activity against CFS resistant Escherichia coli assessed as increase in bacterial killing in presence of CFS preincubated for 20 mins prior to 405 nm LED laser irradiation for 5 mins and cocultured for 6 hrs under static condition and measured after 24 hrs by plate count method; format: functional, organism-based; details: time 1825.0 min
Escherichia coli [33] = test: Antibiofilm activity against Escherichia coli assessed as reduction in exo-polysaccharide content after 48 hrs under light irradiation in presence of CFS by FITC-ConA staining based confocal laser scanning microscopy analysis; format: functional, organism-based
[34] = Solubility of compound in water; format: physicochemical
Escherichia coli [35] = test: Synergistic antibacterial activity against cefoperazone sodium resistant Escherichia coli assessed as decrease in CFS MIC at 132 ug/ml preincubated for 20 mins prior to 405 nm LED laser irradiation for 5 mins and cocultured for 6 hrs under static condition and measured after 24 hrs by plate count method (reference value: 285 ug/ml); format: functional; details: light or radiation study, 30.42 h, dose 132 µg/ml, time 1825 min
Escherichia coli [36] = test: Synergistic bactericidal activity against CFS resistant Escherichia coli incubated under dark condition in presence of CFS by AO/EB staining based confocal laser scanning microscopy assay; format: functional, organism-based
Escherichia coli [37] = test: Synergistic antibacterial activity against Escherichia coli incubated under dark condition in presence of AMP; format: functional, organism-based
Escherichia coli [38] = test: Antibiofilm activity against Escherichia coli assessed as reduction in bacterial cell density after 48 hrs under light irradiation in presence of CFS by FITC-ConA staining based confocal laser scanning microscopy analysis; format: functional, organism-based
Escherichia coli [39] = test: Synergistic antibacterial activity against Escherichia coli assessed as appearance of incomplete cell wall under light irradiation in presence of CFS; format: functional, organism-based
Escherichia coli [40] = test: Synergistic antibacterial activity against Escherichia coli assessed as appearance of shrunken cell wall under light irradiation in presence of CFS; format: functional, organism-based
Escherichia coli [41] = test: Synergistic antibacterial activity against CFS susceptible Escherichia coli assessed as increase in bacterial killing incubated under dark condition in presence of CFS; format: functional, organism-based
Escherichia coli [42] = test: Antibiofilm activity against drug resistant Escherichia coli incubated for 48 hrs under light irradiation in presence of CFS by crystal violet staining based microplate reader assay; format: functional
HeLa = test: Cytotoxicity against human HeLa cells assessed as viable cells after 200 ug/ml incubated for 24 hrs by MTT assay; format: functional; details: read-out: Activity
Escherichia coli [43] = test: as §1, with “against cefoperazone sodium” for “against CFS”, “as elimination of resistant bacteria” for “as increase in bacterial killing”; format: functional; details: time 1825 min; 30.42 h
Bacteria [44] = test: Inhibition of TEM-1 activity (unknown origin) at 65 ug/ml using nitrocefin as substrate preincubated for 30 mins followed by 485 nm light irradiation and substrate addition by UV-Vis spectrometer assay; details: dose 65.0 µg/ml
[45] = Drug uptake in Escherichia coli assessed as increase in red fluorescence at 1 mg/ml after 1 mins under 405 nm light irradiation by acridine orange staining based confocal laser scanning microscopy analysis; format: ADME
[46] = Drug uptake in Escherichia coli assessed as increase in red fluorescence at 1 mg/ml incubated for 15 mins under dark condition by acridine orange staining based confocal laser scanning microscopy analysis; format: ADME; details: 0.25 h

Work on `CC1(C)S[C@@H]2[C@H](NC(=O)[C@H](N)c3ccccc3)C(=O)N2[C@H]1C(=O)O` [AMPICILLIN] yielded an MIC (Escherichia coli [1]) of 8 µg/mL (≈ 22.9 µM) and an MIC (Escherichia coli [2]) of 150 µg/mL (≈ 429 µM).

With `CC1(C)[C@H](C(=O)O)N2C(=O)C[C@H]2S1(=O)=O` [SULBACTAM] the Activity (Escherichia coli [3]) was 98%, the Activity (Escherichia coli [4]) was “Active” and the MIC (Escherichia coli [5]) was 14 µg/mL. For the same compound, the Activity (Escherichia coli [6]) was 45% and the inhibition (Bacteria [7]) was 93.3%.

Work on `CC1(C)C(C(=O)OCCc2ccccc2[N+](=O)[O-])N2C(=O)CC2S1(=O)=O` (stereo not given) yielded an Activity [8] of 25% and an inhibition (Bacteria [9]) of 9.03%.

`CC1(C)C(C(=O)OCCCOC(=O)Cc2ccccc2[N+](=O)[O-])N2C(=O)CC2S1(=O)=O` (stereo not given) showed an inhibition (Bacteria [9]) of 10.6%.

In the case of `CCN1CCN(C(=O)N[C@@H](C(=O)N[C@@H]2C(=O)N3C(C(=O)[O-])=C(CSc4nnnn4C)CS[C@H]23)c2ccc(O)cc2)C(=O)C1=O.[Na+]` [CEFOPERAZONE SODIUM], the Activity (Escherichia coli [10]) is reported as 54.2%, the Activity (Escherichia coli [11]) is reported as “inactive” and the MIC (Escherichia coli [12]) is reported as 14 µg/mL. For the same compound, the Activity (Escherichia coli [13]) was “Active”, the Activity (Escherichia coli [14]) was “Active” and the Activity (Escherichia coli [15]) was “Active”. The Activity (Escherichia coli [16]) was “inactive”, the Activity (Escherichia coli [17]) was ~50% and the MIC (Escherichia coli [18]) was 285 µg/mL.

In the case of `CC(COC(=O)C1N2C(=O)CC2S(=O)(=O)C1(C)C)c1cc(-c2ccc(OCCOCCOCCOCCn3nncc3CCCO[C@H]3O[C@H](CO)[C@H](O)[C@H](O)[C@H]3O)cc2)ccc1[N+](=O)[O-]` (stereo not given in full), the Stability [19] is reported as “Stable”, the inhibition (Bacteria [20]) is reported as 89.1% and the Activity (Escherichia coli [21]) is reported as “Active”. The Activity (Escherichia coli [22]) was “Active”, the Activity (Escherichia coli [23]) was “Active” and the Activity (Escherichia coli [24]) was “Active”. For the same compound, the Activity (Escherichia coli [25]) was “Active”, the Activity (Escherichia coli [26]) was 54.7% and the Activity [8] was 62%. The Activity [27] was ~ 60%, the Activity (Escherichia coli [4]) was “Active” and the Activity (Escherichia coli [28]) was “inactive”. The inhibition (Bacteria [29]) was 7.26%, the inhibition (Bacteria [30]) was 84.7% and the Activity (Escherichia coli [31]) was ~50%. For the same compound, the Activity (Escherichia coli [32]) was “Active”, the Activity (Escherichia coli [33]) was “Active” and the solubility [34] was ≤ 1000 µM. For the same compound, the MIC (Escherichia coli [35]) was 14 µg/mL, the Activity (Escherichia coli [36]) was “inactive” and the Activity (Escherichia coli [37]) was “Active”. For the same compound, the Activity (Escherichia coli [38]) was “Active”, the Activity (Escherichia coli [39]) was “Active” and the Activity (Escherichia coli [40]) was “Active”. The Activity (Escherichia coli [41]) was “Active”, the Activity (Escherichia coli [42]) was ~90% and the viability at 200 µg/mL (HeLa) was > 90%. The Activity (Escherichia coli [43]) was 96.01% and the inhibition (Bacteria [44]) was “Active”.

For `CCN(CC)c1ccc2c(-c3ccccc3COCC(C)c3cc(-c4ccc(OCCOCCOCCOCCn5nncc5CCCO[C@H]5O[C@H](CO)[C@H](O)[C@H](O)[C@H]5O)cc4)ccc3[N+](=O)[O-])c3ccc(=[N+](CC)CC)cc-3oc2c1.Cl` (stereo not given in full), the Drug uptake [45] was “Active” and the Drug uptake [46] was “Active”.
